Publication PMC6757289, “Design and Characterization of SGK3-PROTAC1, an Isoform Specific SGK3 Kinase PROTAC Degrader” (ACS Chemical Biology, 2019)
Where two headings read alike, the source gives them in different places.

Experiments:
Test in all cases: kinase profiling panel
Format in all cases: biochemical
WNK1 = WNK1 (Homo sapiens, UniProt Q9H4A3); conditions: read-out: % Activity Remaining
Text: (§1) Protein kinase profiling against a Dundee panel of 140 protein kinases was undertaken at the International Centre for Protein Kinase Profiling. The result for each kinase was presented as a mean kinase activity of the reaction taken in triplicate relative to a control sample treated with DMSO. Assay conditions and abbreviations are available at http://www.kinase-screen.mrc.ac.uk.

CHK2 = CHK2 (Homo sapiens, UniProt O96017); conditions: read-out: % Activity Remaining
Chain of CHK2 (O96017 whole entry): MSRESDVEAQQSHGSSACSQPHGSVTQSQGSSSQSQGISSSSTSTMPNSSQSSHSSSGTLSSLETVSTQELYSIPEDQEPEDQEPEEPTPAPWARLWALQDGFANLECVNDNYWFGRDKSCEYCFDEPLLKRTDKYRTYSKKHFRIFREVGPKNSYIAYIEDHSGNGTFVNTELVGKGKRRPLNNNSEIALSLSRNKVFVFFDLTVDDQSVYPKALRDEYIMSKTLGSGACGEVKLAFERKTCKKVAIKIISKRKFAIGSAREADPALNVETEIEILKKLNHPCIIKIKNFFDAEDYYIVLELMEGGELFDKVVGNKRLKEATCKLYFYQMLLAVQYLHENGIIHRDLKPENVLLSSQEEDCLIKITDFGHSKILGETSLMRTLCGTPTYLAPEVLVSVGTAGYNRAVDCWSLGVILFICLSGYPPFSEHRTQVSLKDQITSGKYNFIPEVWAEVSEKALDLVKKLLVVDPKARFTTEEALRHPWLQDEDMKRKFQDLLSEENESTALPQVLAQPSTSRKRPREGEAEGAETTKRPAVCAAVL
Text: as §1

EPH-B4 = biological target: T1, EPH-B4 (Homo sapiens, UniProt P54760); conditions: read-out: % Activity Remaining
T1 sequence (P54760 16-987): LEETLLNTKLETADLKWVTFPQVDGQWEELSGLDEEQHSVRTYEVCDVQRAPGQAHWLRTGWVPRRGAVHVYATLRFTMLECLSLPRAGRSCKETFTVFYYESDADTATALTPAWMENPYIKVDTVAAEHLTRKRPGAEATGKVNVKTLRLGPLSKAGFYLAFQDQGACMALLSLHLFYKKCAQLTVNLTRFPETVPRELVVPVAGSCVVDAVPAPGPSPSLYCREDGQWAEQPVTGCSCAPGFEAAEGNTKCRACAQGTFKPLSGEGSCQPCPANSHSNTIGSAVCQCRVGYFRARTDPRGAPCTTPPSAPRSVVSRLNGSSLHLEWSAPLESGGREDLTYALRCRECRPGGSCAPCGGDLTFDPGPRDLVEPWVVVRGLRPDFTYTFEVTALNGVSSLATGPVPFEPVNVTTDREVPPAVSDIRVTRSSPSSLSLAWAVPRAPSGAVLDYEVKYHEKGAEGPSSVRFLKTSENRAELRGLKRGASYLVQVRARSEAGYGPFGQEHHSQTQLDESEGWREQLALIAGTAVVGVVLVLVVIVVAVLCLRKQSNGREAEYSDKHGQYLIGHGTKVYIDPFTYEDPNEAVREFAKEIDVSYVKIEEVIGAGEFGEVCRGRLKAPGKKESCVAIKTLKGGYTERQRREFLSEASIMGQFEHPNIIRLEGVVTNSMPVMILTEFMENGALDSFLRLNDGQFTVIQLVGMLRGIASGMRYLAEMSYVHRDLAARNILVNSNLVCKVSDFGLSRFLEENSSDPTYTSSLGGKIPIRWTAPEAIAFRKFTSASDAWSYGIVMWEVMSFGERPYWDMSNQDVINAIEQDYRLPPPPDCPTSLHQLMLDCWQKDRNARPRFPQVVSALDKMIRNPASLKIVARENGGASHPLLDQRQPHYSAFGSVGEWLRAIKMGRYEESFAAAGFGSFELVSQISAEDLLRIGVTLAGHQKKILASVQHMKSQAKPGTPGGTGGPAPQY
Text: as §1

HIPK1 = HIPK1 (Homo sapiens, UniProt Q86Z02); conditions: read-out: % Activity Remaining
Chain of HIPK1 (Q86Z02 whole entry): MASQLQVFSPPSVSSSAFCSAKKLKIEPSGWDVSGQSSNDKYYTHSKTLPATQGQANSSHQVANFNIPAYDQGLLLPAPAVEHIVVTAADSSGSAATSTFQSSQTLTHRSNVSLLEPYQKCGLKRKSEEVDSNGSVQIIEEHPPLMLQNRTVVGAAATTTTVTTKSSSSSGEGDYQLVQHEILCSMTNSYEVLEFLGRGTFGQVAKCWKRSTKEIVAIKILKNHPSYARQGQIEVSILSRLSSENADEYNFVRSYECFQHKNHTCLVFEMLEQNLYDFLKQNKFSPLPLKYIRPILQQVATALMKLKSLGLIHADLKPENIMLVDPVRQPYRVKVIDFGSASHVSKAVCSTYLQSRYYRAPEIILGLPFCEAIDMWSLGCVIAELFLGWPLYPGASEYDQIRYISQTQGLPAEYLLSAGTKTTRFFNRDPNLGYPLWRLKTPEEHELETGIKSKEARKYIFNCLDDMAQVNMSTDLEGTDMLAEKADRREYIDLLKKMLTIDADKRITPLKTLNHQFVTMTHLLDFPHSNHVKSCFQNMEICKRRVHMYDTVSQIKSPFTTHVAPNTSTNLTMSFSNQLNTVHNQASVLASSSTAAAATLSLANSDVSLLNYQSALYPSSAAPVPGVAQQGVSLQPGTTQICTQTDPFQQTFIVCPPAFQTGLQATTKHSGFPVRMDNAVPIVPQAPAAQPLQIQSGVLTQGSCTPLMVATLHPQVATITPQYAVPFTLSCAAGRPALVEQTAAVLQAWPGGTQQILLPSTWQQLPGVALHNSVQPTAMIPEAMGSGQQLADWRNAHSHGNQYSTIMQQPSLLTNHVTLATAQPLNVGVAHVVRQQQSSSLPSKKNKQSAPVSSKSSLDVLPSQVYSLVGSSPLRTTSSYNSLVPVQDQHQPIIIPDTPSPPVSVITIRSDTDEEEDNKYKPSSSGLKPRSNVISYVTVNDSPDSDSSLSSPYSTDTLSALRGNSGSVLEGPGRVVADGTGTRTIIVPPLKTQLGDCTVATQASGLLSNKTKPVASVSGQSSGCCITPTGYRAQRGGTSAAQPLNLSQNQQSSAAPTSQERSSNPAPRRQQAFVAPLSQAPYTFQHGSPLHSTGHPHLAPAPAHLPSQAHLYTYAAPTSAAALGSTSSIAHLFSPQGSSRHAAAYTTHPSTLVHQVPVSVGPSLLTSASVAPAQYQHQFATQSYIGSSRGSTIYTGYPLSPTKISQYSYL
Text: as §1

IRAK1 = IRAK1 (Homo sapiens, UniProt P51617); conditions: read-out: % Activity Remaining
Chain of IRAK1 (P51617 whole entry): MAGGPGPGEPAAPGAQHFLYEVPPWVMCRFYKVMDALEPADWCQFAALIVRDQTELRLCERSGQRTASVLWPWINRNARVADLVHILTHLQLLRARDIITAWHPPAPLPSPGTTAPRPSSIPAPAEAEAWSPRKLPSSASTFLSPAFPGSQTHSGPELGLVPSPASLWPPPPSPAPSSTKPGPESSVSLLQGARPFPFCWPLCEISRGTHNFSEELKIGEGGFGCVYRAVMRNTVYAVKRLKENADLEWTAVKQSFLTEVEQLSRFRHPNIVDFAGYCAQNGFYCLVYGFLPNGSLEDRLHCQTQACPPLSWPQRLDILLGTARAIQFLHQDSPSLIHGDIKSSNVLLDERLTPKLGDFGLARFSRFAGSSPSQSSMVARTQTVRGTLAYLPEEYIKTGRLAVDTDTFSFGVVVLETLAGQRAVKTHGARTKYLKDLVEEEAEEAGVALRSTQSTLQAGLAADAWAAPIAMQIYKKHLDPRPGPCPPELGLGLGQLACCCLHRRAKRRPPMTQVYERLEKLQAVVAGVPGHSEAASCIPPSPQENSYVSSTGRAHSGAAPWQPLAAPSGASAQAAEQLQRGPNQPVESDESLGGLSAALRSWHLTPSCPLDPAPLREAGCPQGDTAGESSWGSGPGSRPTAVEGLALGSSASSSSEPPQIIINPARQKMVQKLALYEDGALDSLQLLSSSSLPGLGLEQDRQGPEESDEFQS
Text: as §1

PINK = biological target: T2, PINK (Tribolium castaneum, UniProt D6WMX4)
T2 sequence (D6WMX4 1-570): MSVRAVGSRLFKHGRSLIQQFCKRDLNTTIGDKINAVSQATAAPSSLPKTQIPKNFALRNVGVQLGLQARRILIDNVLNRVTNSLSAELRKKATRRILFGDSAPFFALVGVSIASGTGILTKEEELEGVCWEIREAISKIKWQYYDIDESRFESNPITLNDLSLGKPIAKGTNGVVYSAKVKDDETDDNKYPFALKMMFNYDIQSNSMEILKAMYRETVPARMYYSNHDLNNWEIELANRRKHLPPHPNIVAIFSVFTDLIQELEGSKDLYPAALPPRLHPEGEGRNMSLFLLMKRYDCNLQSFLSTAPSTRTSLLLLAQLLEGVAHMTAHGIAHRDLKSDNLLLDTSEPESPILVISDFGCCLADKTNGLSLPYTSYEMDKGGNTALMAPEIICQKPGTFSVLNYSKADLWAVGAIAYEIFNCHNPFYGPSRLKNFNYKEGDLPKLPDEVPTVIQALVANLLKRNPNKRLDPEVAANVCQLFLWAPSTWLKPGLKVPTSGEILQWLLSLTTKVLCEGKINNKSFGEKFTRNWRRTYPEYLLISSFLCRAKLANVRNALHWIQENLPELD
Text: as §1

SRPK1 = SRPK1 (Homo sapiens, UniProt Q96SB4); conditions: read-out: % Activity Remaining
Chain of SRPK1 (Q96SB4 whole entry): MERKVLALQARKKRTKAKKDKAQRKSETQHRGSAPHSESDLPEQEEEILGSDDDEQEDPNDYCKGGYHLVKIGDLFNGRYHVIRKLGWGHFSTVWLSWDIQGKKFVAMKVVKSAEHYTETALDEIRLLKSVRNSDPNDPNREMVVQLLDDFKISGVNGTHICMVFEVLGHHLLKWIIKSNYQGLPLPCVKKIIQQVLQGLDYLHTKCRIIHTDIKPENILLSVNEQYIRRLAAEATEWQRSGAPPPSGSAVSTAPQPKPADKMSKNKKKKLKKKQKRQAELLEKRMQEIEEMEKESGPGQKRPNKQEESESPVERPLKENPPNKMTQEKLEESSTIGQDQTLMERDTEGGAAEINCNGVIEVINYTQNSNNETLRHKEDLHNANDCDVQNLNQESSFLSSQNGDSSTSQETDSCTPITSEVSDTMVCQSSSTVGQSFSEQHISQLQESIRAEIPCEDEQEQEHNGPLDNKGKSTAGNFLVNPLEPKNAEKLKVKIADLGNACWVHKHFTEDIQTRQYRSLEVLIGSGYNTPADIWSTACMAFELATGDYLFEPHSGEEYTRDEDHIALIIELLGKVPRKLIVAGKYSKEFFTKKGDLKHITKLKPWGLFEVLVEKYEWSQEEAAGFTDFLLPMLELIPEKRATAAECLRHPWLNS
Text: as §1

TAK1 = biological target: T3, TAK1 (Homo sapiens, UniProt O43318); conditions: read-out: % Activity Remaining
T3 sequence (O43318 1-303 limits assumed): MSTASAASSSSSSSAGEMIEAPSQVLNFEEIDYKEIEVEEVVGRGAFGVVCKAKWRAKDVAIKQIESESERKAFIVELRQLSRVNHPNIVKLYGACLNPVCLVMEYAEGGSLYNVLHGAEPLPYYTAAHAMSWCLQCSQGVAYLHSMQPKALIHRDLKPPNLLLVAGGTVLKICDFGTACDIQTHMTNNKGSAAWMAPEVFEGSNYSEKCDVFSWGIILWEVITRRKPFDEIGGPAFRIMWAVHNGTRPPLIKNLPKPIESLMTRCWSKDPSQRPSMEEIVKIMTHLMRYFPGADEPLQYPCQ
Text: as §1

MKK2 = MKK2 (Homo sapiens, UniProt P36507); conditions: read-out: % Activity Remaining
Text: as §1

Aurora B = Aurora B (Homo sapiens, UniProt Q96GD4); conditions: read-out: % Activity Remaining
Chain of Aurora B (Q96GD4 whole entry): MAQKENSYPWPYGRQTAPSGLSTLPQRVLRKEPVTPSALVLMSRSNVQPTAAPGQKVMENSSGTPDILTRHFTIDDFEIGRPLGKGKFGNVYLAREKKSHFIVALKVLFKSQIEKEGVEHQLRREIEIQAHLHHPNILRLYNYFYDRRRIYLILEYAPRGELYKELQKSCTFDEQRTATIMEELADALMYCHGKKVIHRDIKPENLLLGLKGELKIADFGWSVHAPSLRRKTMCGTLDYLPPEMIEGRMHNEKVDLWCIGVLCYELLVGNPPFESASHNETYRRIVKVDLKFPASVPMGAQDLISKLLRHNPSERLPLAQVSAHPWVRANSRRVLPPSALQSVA
Text: as §1

RSK1 = RSK1 (Homo sapiens, UniProt Q15418); conditions: read-out: % Activity Remaining
Chain of RSK1 (Q15418 whole entry): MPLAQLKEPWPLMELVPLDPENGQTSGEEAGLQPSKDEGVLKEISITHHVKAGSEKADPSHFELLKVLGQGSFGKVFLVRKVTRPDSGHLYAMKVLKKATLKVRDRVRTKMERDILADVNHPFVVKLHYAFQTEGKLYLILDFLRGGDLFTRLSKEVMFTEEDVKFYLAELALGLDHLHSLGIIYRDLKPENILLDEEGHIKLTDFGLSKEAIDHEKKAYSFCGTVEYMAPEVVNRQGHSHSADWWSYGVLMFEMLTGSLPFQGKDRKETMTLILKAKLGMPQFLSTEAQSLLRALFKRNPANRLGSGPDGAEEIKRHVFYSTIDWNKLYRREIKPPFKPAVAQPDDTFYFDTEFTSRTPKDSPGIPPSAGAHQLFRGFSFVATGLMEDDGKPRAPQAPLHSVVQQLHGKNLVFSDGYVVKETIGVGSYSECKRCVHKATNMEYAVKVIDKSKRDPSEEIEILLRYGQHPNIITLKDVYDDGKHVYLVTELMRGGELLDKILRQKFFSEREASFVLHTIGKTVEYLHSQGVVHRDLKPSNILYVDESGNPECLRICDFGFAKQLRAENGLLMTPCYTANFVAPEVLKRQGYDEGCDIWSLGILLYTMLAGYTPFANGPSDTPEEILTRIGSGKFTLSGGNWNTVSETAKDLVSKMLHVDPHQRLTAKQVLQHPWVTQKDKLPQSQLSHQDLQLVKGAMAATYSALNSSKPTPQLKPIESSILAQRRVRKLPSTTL
Text: as §1

PAK2 = PAK2 (Homo sapiens, UniProt Q13177); conditions: read-out: % Activity Remaining
Chain of PAK2 (Q13177 whole entry): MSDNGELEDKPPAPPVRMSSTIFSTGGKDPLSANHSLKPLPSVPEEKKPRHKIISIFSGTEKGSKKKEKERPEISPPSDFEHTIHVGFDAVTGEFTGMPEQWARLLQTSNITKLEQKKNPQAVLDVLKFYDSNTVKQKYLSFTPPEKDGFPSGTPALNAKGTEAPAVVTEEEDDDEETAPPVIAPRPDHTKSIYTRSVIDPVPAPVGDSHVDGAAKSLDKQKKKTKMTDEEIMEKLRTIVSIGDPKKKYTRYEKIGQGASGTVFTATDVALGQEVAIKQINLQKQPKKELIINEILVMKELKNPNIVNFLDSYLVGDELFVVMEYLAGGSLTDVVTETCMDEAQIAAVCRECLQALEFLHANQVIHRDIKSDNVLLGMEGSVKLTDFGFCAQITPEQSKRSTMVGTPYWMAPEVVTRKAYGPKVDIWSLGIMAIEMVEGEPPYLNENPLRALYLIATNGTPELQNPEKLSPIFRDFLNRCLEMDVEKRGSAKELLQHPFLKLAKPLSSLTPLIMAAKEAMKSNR
Text: as §1

Compound	remaining activity at 1 µM (WNK1) [%]	remaining activity at 1 µM (CHK2) [%]	remaining activity at 1 µM (EPH-B4) [%]	remaining activity at 1 µM (HIPK1) [%]	remaining activity at 1 µM (IRAK1) [%]	remaining activity at 1 µM (PINK) [%]	remaining activity at 1 µM (SRPK1) [%]	remaining activity at 1 µM (TAK1) [%]	remaining activity at 1 µM (MKK2) [%]	remaining activity at 1 µM (Aurora B) [%]	remaining activity at 1 µM (RSK1) [%]	remaining activity at 1 µM (PAK2) [%]	remaining activity at 1 µM (WNK1; 1 µM) [%]	remaining activity at 1 µM (CHK2; 1 µM) [%]	remaining activity at 1 µM (EPH-B4; 1 µM) [%]	remaining activity at 1 µM (HIPK1; 1 µM) [%]	remaining activity at 1 µM (IRAK1; 1 µM) [%]	remaining activity at 1 µM (SRPK1; 1 µM) [%]	remaining activity at 1 µM (TAK1; 1 µM) [%]	remaining activity at 1 µM (MKK2; 1 µM) [%]	other results
COc1ccc(Cl)c(S(=O)(=O)Nc2ccc(-c3nc(OC[C@H]4CNCCO4)c4c(C)n[nH]c4n3)cc2)c1 [290-R, reference compound]	110	9	103	117	93	99	94	101	41	70	7	90									
Cc1ccc(F)c(S(=O)(=O)Nc2ccc(-c3nc(OC[C@H]4CNCCO4)c4cn[nH]c4n3)cc2)c1 [308-R, reference compound]	75	24	124	73	88	119	119	74	80	115	7	53									
Cc1ccc(F)c(S(=O)(=O)Nc2ccc(-c3nc(OC[C@H]4CN(CCCCCCOCCOCCOCC(=O)N[C@H](C(=O)N5C[C@H](O)C[C@H]5C(=O)NCc5ccc(-c6scnc6C)cc5)C(C)(C)C)CCO4)c4cn[nH]c4n3)cc2)c1 [SGK3-PROTAC1]						108							94	85	107	135	98	96	108	114	remaining activity at 1 µM (Aurora B; 1 µM): 93%; remaining activity at 1 µM (RSK1; 1 µM): 83%; remaining activity at 1 µM (PAK2; 1 µM): 116%
Cc1ccc(F)c(S(=O)(=O)Nc2ccc(-c3nc(OC[C@H]4CN(CCCCCCOCCOCCOCC(=O)N[C@H](C(=O)N5C[C@@H](O)C[C@H]5C(=O)NCc5ccc(-c6scnc6C)cc5)C(C)(C)C)CCO4)c4cn[nH]c4n3)cc2)c1 [cisSGK3-PROTAC1]						109							97	99	108	126	105	104	107	124	remaining activity at 1 µM (Aurora B; 1 µM): 95%; remaining activity at 1 µM (RSK1; 1 µM): 90%; remaining activity at 1 µM (PAK2; 1 µM): 99%
